Test system: Transport facilitation protein genes
Assay: DNA chip mRNA expression in yeast, transport facilitation protein genes (Table 5)
Format: cell-based, Saccharomyces cerevisiae S288C
In short: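 Measured as treated-to-untreated fluorescence ratio on a full-genome yeast DNA chip. Cells (S288C, YPD, 25° C.) were exposed in log phase for two hours to one chemical, dosed to curb growth without killing.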

Na2As [(1)]
The level of expressed mRNA in the presence of chemical substance/The level of expressed mRNA in the absence of chemical substance (yeast gene YBL030C): 1.0
The level of expressed mRNA in the presence of chemical substance/The level of expressed mRNA in the absence of chemical substance (yeast gene YBL099W): 0.8
The level of expressed mRNA in the presence of chemical substance/The level of expressed mRNA in the absence of chemical substance (yeast gene YBR052C): 1.6
The level of expressed mRNA in the presence of chemical substance/The level of expressed mRNA in the absence of chemical substance (yeast gene YBR068C): 1.1
The level of expressed mRNA in the presence of chemical substance/The level of expressed mRNA in the absence of chemical substance (yeast gene YBR127C): 0.8
The level of expressed mRNA in the presence of chemical substance/The level of expressed mRNA in the absence of chemical substance (yeast gene YBR132C): 0.9
The level of expressed mRNA in the presence of chemical substance/The level of expressed mRNA in the absence of chemical substance (yeast gene YBR207W): 0.8
The level of expressed mRNA in the presence of chemical substance/The level of expressed mRNA in the absence of chemical substance (yeast gene YBR293W): 1.9
The level of expressed mRNA in the presence of chemical substance/The level of expressed mRNA in the absence of chemical substance (yeast gene YBR294W): 6.3
The level of expressed mRNA in the presence of chemical substance/The level of expressed mRNA in the absence of chemical substance (yeast gene YBR295W): 1.4
The level of expressed mRNA in the presence of chemical substance/The level of expressed mRNA in the absence of chemical substance (yeast gene YBR298C): 1.1
The level of expressed mRNA in the presence of chemical substance/The level of expressed mRNA in the absence of chemical substance (yeast gene YCL025C): 1.1
The level of expressed mRNA in the presence of chemical substance/The level of expressed mRNA in the absence of chemical substance (yeast gene YCL038C): 1.6
The level of expressed mRNA in the presence of chemical substance/The level of expressed mRNA in the absence of chemical substance (yeast gene YCR024C-A): 0.8
The level of expressed mRNA in the presence of chemical substance/The level of expressed mRNA in the absence of chemical substance (yeast gene YCR037C): 0.7
The level of expressed mRNA in the presence of chemical substance/The level of expressed mRNA in the absence of chemical substance (yeast gene YCR098C): 1.6
The level of expressed mRNA in the presence of chemical substance/The level of expressed mRNA in the absence of chemical substance (yeast gene YDL128W): 0.8
The level of expressed mRNA in the presence of chemical substance/The level of expressed mRNA in the absence of chemical substance (yeast gene YDL198C): 1.4
The level of expressed mRNA in the presence of chemical substance/The level of expressed mRNA in the absence of chemical substance (yeast gene YDL210W): 1.2
The level of expressed mRNA in the presence of chemical substance/The level of expressed mRNA in the absence of chemical substance (yeast gene YDL245C): 1.0
The level of expressed mRNA in the presence of chemical substance/The level of expressed mRNA in the absence of chemical substance (yeast gene YDR038C): 0.6
The level of expressed mRNA in the presence of chemical substance/The level of expressed mRNA in the absence of chemical substance (yeast gene YDR039C): 0.6
The level of expressed mRNA in the presence of chemical substance/The level of expressed mRNA in the absence of chemical substance (yeast gene YDR086C): 1.3
The level of expressed mRNA in the presence of chemical substance/The level of expressed mRNA in the absence of chemical substance (yeast gene YDR270W): 0.7
The level of expressed mRNA in the presence of chemical substance/The level of expressed mRNA in the absence of chemical substance (yeast gene YDR298C): 1.3
The level of expressed mRNA in the presence of chemical substance/The level of expressed mRNA in the absence of chemical substance (yeast gene YDR342C): 2.8
The level of expressed mRNA in the presence of chemical substance/The level of expressed mRNA in the absence of chemical substance (yeast gene YDR343C): 1.2
The level of expressed mRNA in the presence of chemical substance/The level of expressed mRNA in the absence of chemical substance (yeast gene YDR345C): 0.8
The level of expressed mRNA in the presence of chemical substance/The level of expressed mRNA in the absence of chemical substance (yeast gene YDR387C): 0.8
The level of expressed mRNA in the presence of chemical substance/The level of expressed mRNA in the absence of chemical substance (yeast gene YDR497C): 0.7
The level of expressed mRNA in the presence of chemical substance/The level of expressed mRNA in the absence of chemical substance (yeast gene YEL027W): 1.2
The level of expressed mRNA in the presence of chemical substance/The level of expressed mRNA in the absence of chemical substance (yeast gene YEL063C): 0.7
The level of expressed mRNA in the presence of chemical substance/The level of expressed mRNA in the absence of chemical substance (yeast gene YEL065W): 0.3
The level of expressed mRNA in the presence of chemical substance/The level of expressed mRNA in the absence of chemical substance (yeast gene YER053C): 1.6
The level of expressed mRNA in the presence of chemical substance/The level of expressed mRNA in the absence of chemical substance (yeast gene YFL011W): 1.2
The level of expressed mRNA in the presence of chemical substance/The level of expressed mRNA in the absence of chemical substance (yeast gene YFL041W): 0.7
The level of expressed mRNA in the presence of chemical substance/The level of expressed mRNA in the absence of chemical substance (yeast gene YFL050C): 0.7
The level of expressed mRNA in the presence of chemical substance/The level of expressed mRNA in the absence of chemical substance (yeast gene YFL054C): 1.6
The level of expressed mRNA in the presence of chemical substance/The level of expressed mRNA in the absence of chemical substance (yeast gene YGL006W): 2.5
The level of expressed mRNA in the presence of chemical substance/The level of expressed mRNA in the absence of chemical substance (yeast gene YGL008C): 0.6
The level of expressed mRNA in the presence of chemical substance/The level of expressed mRNA in the absence of chemical substance (yeast gene YGL104C): 0.8
The level of expressed mRNA in the presence of chemical substance/The level of expressed mRNA in the absence of chemical substance (yeast gene YGL167C): 0.9
The level of expressed mRNA in the presence of chemical substance/The level of expressed mRNA in the absence of chemical substance (yeast gene YGL255W): 0.7
The level of expressed mRNA in the presence of chemical substance/The level of expressed mRNA in the absence of chemical substance (yeast gene YGR055W): 2.5
The level of expressed mRNA in the presence of chemical substance/The level of expressed mRNA in the absence of chemical substance (yeast gene YGR065C): 0.8
The level of expressed mRNA in the presence of chemical substance/The level of expressed mRNA in the absence of chemical substance (yeast gene YGR082W): 1.0
The level of expressed mRNA in the presence of chemical substance/The level of expressed mRNA in the absence of chemical substance (yeast gene YGR096W): 1.5
The level of expressed mRNA in the presence of chemical substance/The level of expressed mRNA in the absence of chemical substance (yeast gene YGR138C): 1.1
The level of expressed mRNA in the presence of chemical substance/The level of expressed mRNA in the absence of chemical substance (yeast gene YGR191W): 0.8
The level of expressed mRNA in the presence of chemical substance/The level of expressed mRNA in the absence of chemical substance (yeast gene YGR197C): 1.1
